According to patent publication US20200045965A1, “METHOD FOR THE CONTROL OF PLANT BACTERIAL DISEASES USING CARBOXAMIDE DERIVATIVES” (BAYER CROPSCIENCE AKTIENGESELLSCHAFT, priority 2016, published 2020):

Tests used:
[1] = tested on: Xanthomonas spp.; test: Field trial in vivo against bacterial leaf streak on spring wheat, foliar spray; parameters: species or system Xanthomonas translucens
Experimental: EXAMPLE 2: TEST IN VIVO AGAINST XANTHOMONAS TRANSLUCENS (WHEAT)
Field trials were conducted to test the efficacy of N-(5-chloro-2-isopropylbenzyl)-N-cyclopropyl-3-(difluoromethyl)-5-fluoro-1-methyl-1H-pyrazole-4-carboxamide (compound A5) in combination with the commercial standard Prosaro (a 1:1 combination of Prothioconazole and Tebuconazole) against bacterial leaf streak caused by Xanthomonas spp. when sprayed on leaves. A control without compound A5 was tested in same conditions.
The field trials were randomized, had 4 replicates and plot size was 15.24 m^2. Fertilization, herbicide- and insecticide applications were carried out according to the local agricultural practice.
N-(5-chloro-2-isopropylbenzyl)-N-cyclopropyl-3-(difluoromethyl)-5-fluoro-1-methyl-1H-pyrazole-4-carboxamide was applied as SC 280 formulation in 3 rates in combination with the commercial standard Prosaro. Test was conducted in a Spring wheat which was treated in growth stage EC 61 with one foliar application.
22 days after application the efficacy of the tested products against the bacterial leaf streak caused by Xanthomonas spp. was visually assessed. The effect was evaluated as preservation of remaining green leaves (GRNLVS) in a scale from 1-6 (meaning 1 best and 6 worst green leaf preservation)

[2] = tested on: Pseudomonas syringae; test: Field trials in vivo against Pseudomonas syringae on coffee tree, foliar spray
Experimental: EXAMPLE 1: TEST IN VIVO AGAINST PSEUDOMONAS SYRINGAE (COFFEE)
Two field trials were conducted to find out the efficacy of N-(5-chloro-2-isopropylbenzyl)-N-cyclopropyl-3-(difluoromethyl)-5-fluoro-1-methyl-1H-pyrazole-4-carboxamide (compound A5) against bacteria (Pseudomonas syringae) when sprayed on leaves of coffee tree.
The field trials were randomized, had 3 replicates and plot size was 20 m. The product was applied as an EC 100—formulation in a spray sequence consisting of three foliar applications, beginning in the growth stage EC59. The sprays were done with an interval of approximately 4 weeks (between treatments). About 3 and 11 weeks after the third application the efficacy of the compound against the bacterial pathogen Pseudomonas syringae was visually assessed as incidence of infested leaf rosettes or branches per plot (in %). Then the incidence values were converted into control (% Abbott).

[3] = log P by HPLC on reversed-phase column (EEC Directive 79/831 Annex V.A8); format: physicochemical; settings: HPLC C18, 40° C., 0.1% aqueous formic acid and acetonitrile
Experimental: Table 1 provides the log P and NMR data (^1H) of compounds A1 to A20.
In table 1, the log P values were determined in accordance with EEC Directive 79/831 Annex V.A8 by HPLC (High Performance Liquid Chromatography) on a reversed-phase column (C 18), using the method described below:
Temperature: 40° C.; Mobile phases: 0.1% aqueous formic acid and acetonitrile; linear gradient from 10% acetonitrile to 90% acetonitrile.
Calibration was carried out using unbranched alkan-2-ones (comprising 3 to 16 carbon atoms) with known log P values (determination of the log P values by the retention times using linear interpolation between two successive alkanones). lambda-max-values were determined using UV-spectra from 200 nm to 400 nm and the peak values of the chromatographic signals.

Molecule | suppressing bacterial leaf streak caused by Xanthomonas spp. (conclusion in words) [1] | effect on bacterial disease caused by Pseudomonas syringae in coffee (conclusion in words) ([2]; based on the two field trials) | ABBOTT (%) leaf rosette 21 DA3 ([2]; coffee, first trial (Table 1), 75 g a.i./ha, 21 days after third application) | ABBOTT (%) branch 74 DA3 ([2]; coffee, first trial (Table 1), 75 g a.i./ha, 74 days after third application) | LEAF ROSETTE INCIDENCE (%) 21 DA3 ([2]; coffee, first trial (Table 1), 75 g a.i./ha, EC 100, three foliar applications, 21 days after third application, untreated 12.2) | ABBOTT (%) leaf rosette 20 DA3 ([2]; coffee, second trial (Table 2), 75 g a.i./ha, 20 days after third application) | LEAF ROSETTE INCIDENCE (%) 20 DA3 ([2]; coffee, second trial (Table 2), 75 g a.i./ha, 20 days after third application, untreated 3.5) | logP [3]
CC(C)c1ccc(Cl)cc1CN(C(=O)c1c(C(F)F)nn(C)c1F)C1CC1 [Compound A5, N-(5-chloro-2-isopropylbenzyl)-N-cyclopropyl-3-(difluoromethyl)-5-fluoro-1-methyl-1H-pyrazole-4-carboxamide] | proves the efficiency | suppresses the bacterial disease | 39.2% | 45% | 7.4% | 65.2% | 1.2% | –
N-cyclopropyl-3-(difluoromethyl)-5-fluoro-N-(2-isopropylbenzyl)-1-methyl-1H-pyrazole-4-carbothio-amide [Compound A20] | – | – | – | – | – | – | – | 4.36
